According to patent publication US9840510B1, “Pyrazolo[1,5-a]pyrimidinyl carboxamide compounds and their use in the treatment of medical disorders” (Lysosomal Therapeutics Inc., priority 2016, dated 2017):
In brackets after ≈: the same amount, converted by molar mass.

Experiment: Compound solubility in water
Format: physicochemical
For `Cc1cc(-c2cccc(-c3ncccn3)n2)nc2c(C(=O)NC(C3CC3)C(F)(F)F)cnn12` (stereo not shown) [III-175], the solubility was 1 µg/mL (≈ 2.21 µM).
Work on `Cc1nc(-c2cc(C)n3ncc(C(=O)N[C@H](C4CC4)C(F)(F)F)c3n2)oc1C` [III-331] yielded a solubility of 1 µg/mL (≈ 2.54 µM).
For `Cc1cc(-c2cccc(-c3ncc[nH]3)c2)nc2c(C(=O)NC(C3CC3)C(F)(F)F)cnn12` (stereo not shown) [III-102], the solubility was 0.4 µg/mL (≈ 0.908 µM).
For `Cc1cc(-c2ccc(F)nc2)nc2c(C(=O)NC(C3CC3)C(F)(F)F)cnn12` (stereo not shown) [III-112], the “Compound Solubility in Water” value was 0.8 µg/mL.
Work on `Cc1cc(-c2cncc(C(F)(F)F)c2)nc2c(C(=O)N[C@@H](C)C(F)(F)F)cnn12` [III-287] yielded a solubility of 2.4 µg/mL (≈ 5.75 µM).
Compound `Cc1cc(N2CCCC(F)(F)C2)nc2c(C(=O)NC(C)C3CC3)cnn12` (stereo not shown) [III-61] has a solubility of 5.5 µg/mL (≈ 15.1 µM).
For `Cc1ncc(-c2cc(C)n3ncc(C(=O)N[C@H](C4CC4)C(F)(F)F)c3n2)cc1F` [III-380], the solubility was 0.3 µg/mL (≈ 0.736 µM).
Work on `Cc1cc(N2CCCN(CC(F)(F)F)C2=O)nc2c(C(=O)NC(C3CC3)C(F)(F)F)cnn12` (stereo not shown) [III-260] yielded a solubility of 21 µg/mL (≈ 43.9 µM).
Compound `Cc1nc(-c2cc(C)n3ncc(C(=O)NC(C)(C)C4CC4)c3n2)co1` [III-251] has a solubility of 3.9 µg/mL (≈ 11.5 µM).
Compound `Cc1cc(-c2ccccn2)nc2c(C(=O)NC(C)(C)C3CC3)cnn12` [III-16] has a solubility of 1.1 µg/mL (≈ 3.28 µM).
Compound `Cc1cc(-c2cccc(Cl)n2)nc2c(C(=O)NC(C)(C)C3CC3)cnn12` [III-62] has a solubility of 1.2 µg/mL (≈ 3.24 µM).
`Cc1cc(-c2cccc(F)c2)nc2c(C(=O)NC(C)(C)C(F)(F)F)cnn12` [III-80] gave a solubility of 0.2 µg/mL (≈ 0.526 µM).
Compound `Cc1cc(-c2cnccc2F)nc2c(C(=O)NC(C3CC3)C(F)(F)F)cnn12` (stereo not shown) [III-124] has a solubility of 1.9 µg/mL (≈ 4.83 µM).
`Cc1cc(-c2cccc(F)c2)nc2c(C(=O)N[C@@H](C)C(F)(F)F)cnn12` [III-362] showed a solubility of 0.6 µg/mL (≈ 1.64 µM).
For `COc1cccc(-c2cc(C)n3ncc(C(=O)NC(C)(C)C(F)(F)F)c3n2)c1` [III-405], the solubility was 1.5 µg/mL (≈ 3.82 µM).
Work on `C#CC(C)(C)NC(=O)c1cnn2c(C)cc(-c3cccc(Cl)c3)nc12` [III-81] yielded a solubility of 1.5 µg/mL (≈ 4.25 µM).
With `Cc1cc(-c2ccns2)nc2c(C(=O)NC(C)C(F)(F)F)cnn12` (stereo not shown) [III-178] the solubility was 0.7 µg/mL (≈ 1.97 µM).
In the case of `Cc1cc(C)n2ncc(C(=O)N[C@H](C3CC3)C(F)(F)F)c2n1` [III-10], the solubility is reported as 15.3 µg/mL (≈ 49 µM).
For `Cc1cc(-c2ccns2)nc2c(C(=O)N[C@@H](C3CC3)C(F)(F)F)cnn12` [III-101], the solubility was 1.3 µg/mL (≈ 3.41 µM).
Work on `Cc1cc(-c2cc(F)ccc2C#N)nc2c(C(=O)N[C@H](C)C(F)(F)F)cnn12` [III-349] yielded a solubility of 0.1 µg/mL (≈ 0.256 µM).
Work on `Cc1cc(N2CCCC(F)(F)C2)nc2c(C(=O)N[C@H](C3CC3)C(F)(F)F)cnn12` [III-94] yielded a solubility of 0.6 µg/mL (≈ 1.44 µM).
In the case of `Cc1cc(-c2ccncc2)n2ncc(C(=O)N[C@@H](C)C3CC3)c2n1` [III-29], the solubility is reported as 18.9 µg/mL (≈ 58.8 µM).
Compound `Cc1cc(N2CC(C(C)C)OC2=O)nc2c(C(=O)NC(C3CC3)C(F)(F)F)cnn12` (stereo not shown) [III-316] has a solubility of 1.3 µg/mL (≈ 3.06 µM).
Compound `Cc1ccc(-c2cc(C)n3ncc(C(=O)NC(C4CC4)C(F)(F)F)c3n2)cn1` (stereo not shown) [III-278] has a solubility of 0.5 µg/mL (≈ 1.28 µM).
For `Cc1cc(-c2ccc(F)cc2C#N)nc2c(C(=O)N[C@H](C)C3CC3)cnn12` [III-153], the solubility was 4.5 µg/mL (≈ 12.4 µM).
Compound `Cc1cc(-c2nnc(C(C)C)o2)nc2c(C(=O)N[C@@H](C3CC3)C(F)(F)F)cnn12` [III-392] has a solubility of 0.4 µg/mL (≈ 0.979 µM).
For `COc1ccc(F)cc1-c1cc(C)n2ncc(C(=O)NC(C)C(F)(F)F)c2n1` (stereo not shown) [III-194], the solubility was 0.4 µg/mL (≈ 1.01 µM).
In the case of `Cc1cc(-c2ccc(C#N)nc2)nc2c(C(=O)N[C@H](C3CC3)C(F)(F)F)cnn12` [III-367], the solubility is reported as 0.4 µg/mL (≈ 0.999 µM).
Compound `CO[C@H]1CC[C@@H]([C@@H](C)NC(=O)c2cnn3c(C)cc(C)nc23)CC1` [III-404] has a solubility of 15.1 µg/mL (≈ 45.7 µM).
In the case of `COCCOc1ccc(-c2cc(C)n3ncc(C(=O)NC(C)C(F)(F)F)c3n2)cc1F` (stereo not shown) [III-298], the solubility is reported as 1.5 µg/mL (≈ 3.41 µM).
Compound `C#CC(NC(=O)c1cnn2c(C)cc(-c3cccc(Cl)c3)nc12)C(F)(F)F` (stereo not shown) [III-99] has a solubility of 0.2 µg/mL (≈ 0.509 µM).
Compound `C#CC(C)(C)NC(=O)c1cnn2c(C)cc(-c3cccc(Cl)n3)nc12` [III-63] has a solubility of 0.2 µg/mL (≈ 0.565 µM).
For `COc1ccc(-c2cc(C)n3ncc(C(=O)N[C@@H](C)C(F)(F)F)c3n2)cn1` [III-273], the solubility was 3.4 µg/mL (≈ 8.96 µM).
Compound `Cc1cc(-c2cccc3c2ncn3C)nc2c(C(=O)NC(C3CC3)C(F)(F)F)cnn12` (stereo not shown) [III-310] has a solubility of 0.3 µg/mL (≈ 0.7 µM).
`Cc1cnc(-c2cc(C)n3ncc(C(=O)NC(C4CC4)C(F)(F)F)c3n2)o1` (stereo not shown) [III-253] gave a solubility of 0.7 µg/mL (≈ 1.85 µM).
`Cc1cc(N2CCOCC2)nc2c(C(=O)NC(C)C3CC3)cnn12` (stereo not shown) [III-58] gave a solubility of 20.1 µg/mL (≈ 61 µM).
Compound `CCCCO[C@H]1CC[C@H](NC(=O)c2cnn3c(C)cc(-c4cncc(Cl)c4)nc23)CC1` [III-293] has a solubility of 0.3 µg/mL (≈ 0.679 µM).
Compound `Cc1cc(-c2cncc(Cl)c2)nc2c(C(=O)N[C@@H](C3CC3)C(F)(F)F)cnn12` [III-121] has a solubility of 0.7 µg/mL (≈ 1.71 µM).
Work on `Cc1cc(-c2sccc2C#N)nc2c(C(=O)N[C@@H](C)C3CC3)cnn12` [III-301] yielded a solubility of 1.1 µg/mL (≈ 3.13 µM).
`Cc1cc(-n2ccc(F)n2)nc2c(C(=O)NC(C3CC3)C(F)(F)F)cnn12` (stereo not shown) [III-172] showed a solubility of 0.5 µg/mL (≈ 1.31 µM).
`Cc1cc(-c2cccnc2)nc2c(C(=O)NC(C3CC3)C(F)(F)F)cnn12` (stereo not shown) [III-35] gave a solubility of 6.5 µg/mL (≈ 17.3 µM).
Compound `Cc1cc(-c2cccc(Cl)n2)nc2c(C(=O)N[C@H](C)C(F)(F)F)cnn12` [III-235] has a solubility of 6.4 µg/mL (≈ 16.7 µM).
Work on `CCc1cc(-c2ccccn2)nc2c(C(=O)NC(C)C(F)(F)F)cnn12` (stereo not shown) [III-52] yielded a solubility of 2.4 µg/mL (≈ 6.61 µM).
